The record followed here is ChEMBL document CHEMBL1156390, “Phyllanemblinins A-F, new ellagitannins from Phyllanthus emblica” (J Nat Prod, 2001).

The structures appear in SMILES notation. Calls of active or inactive are those of the source. The calls are words filed in the database; no cut-off is given here.

The experiment relates to Radical scavenging activity. Put plainly: Antioxidant activity assessed as DPPH radical scavenging activity. The experiment is classed as functional. Background: DPPH is a stable violet radical that fades when it is reduced.

Consider `O=C(O)C[C@@H]1C(=O)O[C@H]2[C@@H]3OC(=O)c4cc(O)c(O)c(O)c4-c4c(cc(O)c(O)c4O)C(=O)OC[C@H]2O[C@@H](OC(=O)c2cc(O)c(O)c(O)c2)[C@@H]3OC(=O)c2cc(O)c(O)c3c2[C@H]1[C@H](O)C(=O)O3`, for which the outcome was Active.
As for `O=C(O)C[C@@H]1C(=O)O[C@H]2[C@@H]3OC(=O)c4cc(O)c(O)c(O)c4-c4c(cc(O)c(O)c4O)C(=O)OC[C@H]2O[C@@H](OC(=O)c2cc(O)c(O)c(O)c2)[C@@H]3OC(=O)c2cc(O)c(O)c3c2[C@H]1[C@@](O)(C(=O)O)O3`, the result was Active.
